Laboratory results published in ChEMBL document CHEMBL1938349 (Bioorg Med Chem, 2012).

Key:
[1] = biological target: T1, Alpha-2C adrenergic receptor (Homo sapiens, UniProt P18825); experiment: Displacement of [3H]clonidine from human Alpha-2C receptor by liquid scintillation counting
T1 sequence (P18825 whole entry): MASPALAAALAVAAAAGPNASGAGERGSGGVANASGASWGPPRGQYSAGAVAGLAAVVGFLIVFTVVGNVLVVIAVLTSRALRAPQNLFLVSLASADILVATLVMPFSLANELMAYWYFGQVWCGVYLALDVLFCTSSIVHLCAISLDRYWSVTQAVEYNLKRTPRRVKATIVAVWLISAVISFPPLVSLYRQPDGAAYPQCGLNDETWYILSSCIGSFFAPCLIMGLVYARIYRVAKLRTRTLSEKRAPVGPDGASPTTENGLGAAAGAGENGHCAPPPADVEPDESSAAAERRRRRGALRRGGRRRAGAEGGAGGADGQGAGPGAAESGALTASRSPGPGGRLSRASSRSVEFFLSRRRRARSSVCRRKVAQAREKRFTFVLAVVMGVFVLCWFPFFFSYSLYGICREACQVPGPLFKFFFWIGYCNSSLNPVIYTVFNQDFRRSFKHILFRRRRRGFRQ

[2] = biological target: D(2) dopamine receptor (Homo sapiens, UniProt P14416); experiment: Displacement of [3H]N-methylspiperone from human dopamine D2 receptor by liquid scintillation counting
[3] = biological target: D(3) dopamine receptor (Homo sapiens, UniProt P35462); experiment: Displacement of [3H]N-methylspiperone from human dopamine D3 receptor by liquid scintillation counting
[4] = biological target: T2, D(4) dopamine receptor (Rattus norvegicus, UniProt P30729); experiment: Displacement of [3H]N-methylspiperone from rat dopamine D4 receptor by liquid scintillation counting
T2 sequence (P30729 whole entry): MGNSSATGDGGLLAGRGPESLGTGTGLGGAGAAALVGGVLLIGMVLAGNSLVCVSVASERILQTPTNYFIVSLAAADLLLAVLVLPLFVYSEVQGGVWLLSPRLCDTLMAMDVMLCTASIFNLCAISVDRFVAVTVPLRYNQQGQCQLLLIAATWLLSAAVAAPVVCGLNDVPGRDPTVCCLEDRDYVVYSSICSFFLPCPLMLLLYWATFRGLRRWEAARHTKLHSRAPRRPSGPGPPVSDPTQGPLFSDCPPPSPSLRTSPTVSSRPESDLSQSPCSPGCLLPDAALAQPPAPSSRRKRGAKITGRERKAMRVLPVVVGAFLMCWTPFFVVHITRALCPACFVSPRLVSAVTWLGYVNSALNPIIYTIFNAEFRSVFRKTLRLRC

[5] = biological target: 5-hydroxytryptamine receptor 2A (Homo sapiens, UniProt P28223); experiment: Displacement of [3H]DOI from human 5HT2A receptor after 1 hr by liquid scintillation counting
[6] = biological target: T3, 5-hydroxytryptamine receptor 2C (Rattus norvegicus, UniProt P08909); experiment: Displacement of [3H]mesulergine from rat 5HT2C receptor by liquid scintillation counting
T3 sequence (P08909 whole entry): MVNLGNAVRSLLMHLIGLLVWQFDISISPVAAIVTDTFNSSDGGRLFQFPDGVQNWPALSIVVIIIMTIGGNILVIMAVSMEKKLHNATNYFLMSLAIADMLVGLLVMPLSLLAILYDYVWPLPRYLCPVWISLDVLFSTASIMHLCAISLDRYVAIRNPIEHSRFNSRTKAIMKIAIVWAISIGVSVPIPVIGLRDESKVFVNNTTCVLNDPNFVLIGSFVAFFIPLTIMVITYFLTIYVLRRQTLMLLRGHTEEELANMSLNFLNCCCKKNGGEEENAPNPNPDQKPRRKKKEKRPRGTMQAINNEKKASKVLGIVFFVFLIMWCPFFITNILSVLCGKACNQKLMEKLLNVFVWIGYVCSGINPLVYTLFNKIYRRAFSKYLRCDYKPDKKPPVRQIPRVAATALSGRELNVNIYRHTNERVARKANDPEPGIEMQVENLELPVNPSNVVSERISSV

[7] = biological target: T4, 5-hydroxytryptamine receptor 1A (Homo sapiens, UniProt P08908); experiment: Displacement of [3H]8-OH-DPAT from human 5HT1A receptor by liquid scintillation counting
T4 sequence (P08908 whole entry): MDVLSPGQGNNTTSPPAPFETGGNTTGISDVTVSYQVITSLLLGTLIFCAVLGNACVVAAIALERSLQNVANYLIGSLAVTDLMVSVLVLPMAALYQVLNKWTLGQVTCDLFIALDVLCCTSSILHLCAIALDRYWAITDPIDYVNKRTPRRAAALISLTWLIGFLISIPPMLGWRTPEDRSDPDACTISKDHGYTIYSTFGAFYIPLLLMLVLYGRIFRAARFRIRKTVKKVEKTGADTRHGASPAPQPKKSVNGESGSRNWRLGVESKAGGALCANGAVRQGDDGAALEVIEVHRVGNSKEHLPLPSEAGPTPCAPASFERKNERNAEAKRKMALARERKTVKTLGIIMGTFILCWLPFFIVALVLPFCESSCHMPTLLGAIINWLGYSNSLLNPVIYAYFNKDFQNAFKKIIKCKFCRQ

[8] = biological target: Histamine H1 receptor (Homo sapiens, UniProt P35367)
Chain of Histamine H1 receptor (P35367 whole entry): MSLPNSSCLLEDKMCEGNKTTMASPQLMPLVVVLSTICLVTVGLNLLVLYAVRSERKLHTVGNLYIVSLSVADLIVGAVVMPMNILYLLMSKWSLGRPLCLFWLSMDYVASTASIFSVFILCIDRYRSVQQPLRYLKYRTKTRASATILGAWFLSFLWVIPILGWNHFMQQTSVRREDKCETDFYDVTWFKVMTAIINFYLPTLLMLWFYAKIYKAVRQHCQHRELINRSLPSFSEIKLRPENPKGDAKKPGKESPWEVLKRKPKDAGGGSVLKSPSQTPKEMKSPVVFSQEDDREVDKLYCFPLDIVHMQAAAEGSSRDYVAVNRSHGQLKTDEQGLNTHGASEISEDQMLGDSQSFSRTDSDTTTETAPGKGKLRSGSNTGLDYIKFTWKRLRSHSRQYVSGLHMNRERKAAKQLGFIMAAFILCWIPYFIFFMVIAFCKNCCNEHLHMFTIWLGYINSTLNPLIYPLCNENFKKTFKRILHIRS

Chain of D(2) dopamine receptor (P14416 whole entry): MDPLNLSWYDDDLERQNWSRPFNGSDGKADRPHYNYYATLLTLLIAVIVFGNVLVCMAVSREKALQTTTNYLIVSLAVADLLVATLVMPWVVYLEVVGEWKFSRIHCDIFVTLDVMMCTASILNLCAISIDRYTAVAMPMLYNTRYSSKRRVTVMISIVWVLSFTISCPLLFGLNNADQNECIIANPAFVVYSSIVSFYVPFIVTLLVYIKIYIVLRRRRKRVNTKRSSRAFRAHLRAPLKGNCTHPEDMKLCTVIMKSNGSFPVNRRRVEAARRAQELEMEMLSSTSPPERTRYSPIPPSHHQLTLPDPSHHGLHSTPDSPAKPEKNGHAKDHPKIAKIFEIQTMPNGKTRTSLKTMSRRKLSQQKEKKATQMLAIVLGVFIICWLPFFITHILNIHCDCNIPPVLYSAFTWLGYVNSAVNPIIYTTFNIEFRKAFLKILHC
Chain of 5-hydroxytryptamine receptor 2A (P28223 whole entry): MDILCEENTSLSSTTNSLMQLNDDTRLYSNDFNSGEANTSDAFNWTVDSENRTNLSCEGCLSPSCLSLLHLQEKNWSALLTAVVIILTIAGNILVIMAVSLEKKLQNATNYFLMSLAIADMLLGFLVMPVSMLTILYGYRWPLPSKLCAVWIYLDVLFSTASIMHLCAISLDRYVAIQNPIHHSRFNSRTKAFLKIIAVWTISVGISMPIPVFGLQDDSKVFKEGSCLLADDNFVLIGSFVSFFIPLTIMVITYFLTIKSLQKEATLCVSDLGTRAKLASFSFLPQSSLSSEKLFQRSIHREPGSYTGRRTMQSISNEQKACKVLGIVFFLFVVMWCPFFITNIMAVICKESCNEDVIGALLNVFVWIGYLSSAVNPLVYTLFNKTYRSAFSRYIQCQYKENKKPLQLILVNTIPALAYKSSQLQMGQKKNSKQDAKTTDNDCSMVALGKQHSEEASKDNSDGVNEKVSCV
Chain of D(3) dopamine receptor (P35462 whole entry): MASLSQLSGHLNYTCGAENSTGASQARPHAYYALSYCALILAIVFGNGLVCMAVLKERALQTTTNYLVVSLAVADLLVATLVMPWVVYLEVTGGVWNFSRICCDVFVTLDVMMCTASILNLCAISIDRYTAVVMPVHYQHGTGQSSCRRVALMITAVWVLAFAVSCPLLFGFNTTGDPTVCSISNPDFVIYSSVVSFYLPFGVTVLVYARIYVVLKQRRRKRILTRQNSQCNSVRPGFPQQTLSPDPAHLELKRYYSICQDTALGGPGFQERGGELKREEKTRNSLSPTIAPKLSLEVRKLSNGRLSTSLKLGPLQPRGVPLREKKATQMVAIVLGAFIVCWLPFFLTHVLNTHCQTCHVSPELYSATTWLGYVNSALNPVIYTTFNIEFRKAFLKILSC

Ki [1] [nM] | Structure (SMILES) | Ki [2] [nM] | Ki [3] [nM] | Ki [4] [nM] | Ki [5] [nM] | Ki [6] [nM] | Ki [7] [nM] | Ki [8] [nM]
80 | O=C(CCCN1CCN(c2ncccn2)CC1)c1ccc(F)cc1 | – | – | – | – | – | – | –
– | OC1(c2ccc(Cl)cc2)CCN(CCCOc2ccc(F)cc2)CC1 | 5.3 | 182 | – | – | – | – | –
– | Fc1ccc(SCCCN2CCC(c3ccc(Cl)cc3)CC2)cc1 | 185 | 130 | 39 | 112 | > 10000 | 454 | –
– | Fc1ccc(OCCCN2CCC(c3ccc(Cl)cc3)CC2)cc1 | 41 | 696 | 9.5 | 121 | > 10000 | 169 | –
– | [O-][S+](CCCN1CCC(c2ccc(Cl)cc2)CC1)c1ccc(F)cc1 (stereo not drawn) | 998 | 243 | 35 | 222 | > 10000 | 613 | –
– | Fc1ccc(CCCCN2CCN(c3ccc(Cl)cc3)CC2)cc1 | – | 261 | 7.8 | 81 | – | 112 | –
– | Fc1ccc(SCCCN2CCN(c3ccc(Cl)cc3)CC2)cc1 | 211 | 422 | 8.7 | 53 | – | 166 | –
– | Fc1ccc(SCCCN2CCN(c3ccc(C(F)(F)F)cc3)CC2)cc1 | 4750 | 544 | 89 | 1130 | – | 1080 | –
– | Fc1ccc(OCCCN2CCN(c3ccc(Cl)cc3)CC2)cc1 | 390 | 885 | 6.9 | 60 | – | 80 | –
– | Fc1ccc(OCCCN2CCN(c3ccccc3)CC2)cc1 | 37 | 207 | 7.4 | 57.6 | – | 24 | 62.9
– | Clc1ccc(N2CCN(CCCOc3ccccc3)CC2)cc1 | 447 | 726 | 5.6 | – | – | 154 | –
– | c1ccc(OCCCN2CCN(c3ccccc3)CC2)cc1 | 119 | 79.3 | 4.5 | 46 | – | 25 | 67.9
– | Fc1ccc(SCCCN2CCN(c3ncccn3)CC2)cc1 | 424 | 68 | 21 | 27 | 8830 | 93.1 | –
– | Fc1ccc(OCCCN2CCN(c3ncccn3)CC2)cc1 | 636 | 778 | 4.2 | 23 | > 10000 | 23 | –
45.1 | Fc1ccc(SCCCN2CCN(c3ccccn3)CC2)cc1 | – | – | – | – | – | – | 212
– | Fc1ccc(OCCCN2CCN(c3ccccn3)CC2)cc1 | – | – | – | – | – | – | 262

Structure (SMILES) | Ki [1] [nM] | Ki [2] [nM] | Ki [3] [nM] | Ki [4] [nM] | Ki [5] [nM] | Ki [6] [nM] | Ki [7] [nM] | Ki [8] [nM]
Fc1ccc(CCCCN2CCN(c3ccccn3)CC2)cc1 | 308 | – | – | – | – | – | – | 167
